Reference: PubChem BioAssay (NCI)
Values joined by “and” are separate entries in the source; they are usually repeats but may differ in a detail not shown here. Equal entries are not always repeated.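 Five compound concentrations were applied to cells in 96-well plates for 48 hours; endpoints were derived by simple linear interpolation of the resulting dose-response curve. GI50: concentration for 50% inhibition of growth. TGI: concentration producing complete growth inhibition.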 Active and inactive are the calls of the source. Cut-off read from the data, not from the text of the source: active = GI50 below about 0.43 µM; inactive = the rest.

Key:
Assay in all cases: growth of human tumour cells (NCI), 48 h
[1] = system: NCI-H23 lung
[2] = system: SNB-78 CNS
[3] = system: RPMI-8226 leukemia
[4] = system: SR leukemia
[5] = system: UO-31 renal
[6] = system: HOP-92 NSCLC
[7] = system: ACHN renal
[8] = system: MOLT-4 leukemia
[9] = system: NCI-H522 lung
[10] = system: SF-268 CNS
[11] = system: HCT-116 colon
[12] = system: RXF 393 renal
[13] = system: EKVX NSCLC
[14] = system: OVCAR-8 ovarian
[15] = system: SNB-75 CNS
[16] = system: HOP-62 NSCLC
[17] = system: XF 498 CNS
[18] = system: SF-539 CNS
[19] = system: DMS 114 small cell lung
[20] = system: SNB-19 CNS
[21] = system: SN12C renal
[22] = system: LOX IMVI melanoma
[23] = system: OVCAR-5 ovarian
[24] = system: SK-MEL-5 melanoma
[25] = system: HOP-18 NSCLC
[26] = system: DMS 273 small cell lung
[27] = system: SK-MEL-28 melanoma
[28] = system: U251 CNS
[29] = system: KM12 colon
[30] = system: NCI-H226 lung
[31] = system: HCC-2998 colon
[32] = system: OVCAR-3 ovarian
[33] = system: SW-620 colon
[34] = system: HCT-15 colon
[35] = system: SK-OV-3 ovarian
[36] = system: DLD-1 colon
[37] = system: K-562 leukemia
[38] = system: HL-60(TB) leukemia
[39] = system: M19-MEL melanoma
[40] = system: OVCAR-4 ovarian
[41] = system: SK-MEL-2 melanoma
[42] = system: CCRF-CEM leukemia
[43] = system: SF-295 CNS
[44] = system: UACC-62 melanoma
[45] = system: A549 NSCLC
[46] = system: 786-0 renal
[47] = system: IGROV1 ovarian
[48] = system: A498 renal
[49] = system: MALME-3M melanoma
[50] = system: HT29 colon
[51] = system: KM20L2 colon
[52] = system: LXFL 529 NSCLC
[53] = system: COLO 205 colon
[54] = system: CAKI-1 renal
[55] = system: TK-10 renal
[56] = system: M14 melanoma
[57] = system: NCI-H460 lung
[58] = system: MCF7 breast
[59] = system: BT-549 breast
[60] = system: MDA-MB-435
[61] = system: MDA-N
[62] = system: HS 578T breast
[63] = system: PC-3 prostate
[64] = system: MDA-MB-231 breast
[65] = system: DU-145 prostate
[66] = system: T-47D breast
[67] = system: NCI/ADR-RES ovarian
[68] = system: UACC-257 melanoma

CCOC(=O)c1sc2c(C(=O)OCC)n3ccccc3c2c1N
GI50 [1]: 74.2 µM | GI50 [2]: 27.3 µM | outcome [3]: inactive | outcome [4]: inactive | GI50 [5]: 49.2 µM | TGI [5]: 67.1 µM | GI50 [6]: 23.8 µM | TGI [6]: 55.2 µM | GI50 [7]: 89.4 µM | outcome [8]: inactive | GI50 [9]: 24.3 µM | TGI [9]: 63 µM and 68 µM | GI50 [10]: 36.6 µM | GI50 [11]: 35.9 µM | TGI [12]: 50 µM | GI50 [13]: 70 µM | GI50 [14]: 52.1 µM | TGI [15]: 99.1 µM | GI50 [16]: 22.5 µM | TGI [16]: 57.3 µM and 70.7 µM | GI50 [17]: 33.9 µM | TGI [17]: 48 µM | GI50 [18]: 22.3 µM | TGI [18]: 75.4 µM | GI50 [19]: 47.5 µM | GI50 [20]: 23.9 µM | TGI [20]: 90.9 µM and 65.5 µM | GI50 [21]: 73.5 µM

c1c[nH]c(Cc2ncc(Cc3cnc[nH]3)[nH]2)n1
TGI [22]: 96.2 µM | TGI [1]: > 100 µM | TGI [23]: 59.6 µM | TGI [24]: 59.1 µM | TGI [25]: > 100 µM | TGI [26]: 67.8 µM | TGI [3]: > 100 µM | TGI [27]: > 100 µM | TGI [6]: > 100 µM | TGI [7]: 51.5 µM | TGI [8]: > 100 µM | TGI [28]: > 100 µM | TGI [29]: > 100 µM | TGI [30]: 46.3 µM | TGI [31]: > 100 µM | TGI [32]: > 100 µM | TGI [9]: > 100 µM | TGI [33]: > 100 µM | TGI [34]: > 100 µM | TGI [35]: 86.2 µM | TGI [36]: > 100 µM | TGI [10]: > 100 µM | TGI [11]: > 100 µM | TGI [37]: > 100 µM | TGI [38]: 21.5 µM | TGI [39]: 55.8 µM | TGI [13]: > 100 µM | TGI [14]: > 100 µM | TGI [15]: > 100 µM | TGI [40]: > 100 µM | TGI [41]: > 100 µM | TGI [42]: 58.7 µM | TGI [43]: > 100 µM | TGI [44]: 59.5 µM | TGI [16]: 98.6 µM | TGI [45]: > 100 µM | TGI [46]: 65.8 µM | TGI [47]: 85 µM | TGI [48]: 86 µM | TGI [49]: > 100 µM | TGI [17]: > 100 µM | TGI [50]: > 100 µM | TGI [18]: > 100 µM | TGI [51]: > 100 µM | TGI [19]: 58.6 µM | TGI [20]: 84.4 µM | TGI [21]: > 100 µM | TGI [52]: > 100 µM | TGI [53]: > 100 µM | TGI [54]: > 100 µM | TGI [55]: > 100 µM | TGI [56]: 36.7 µM | TGI [57]: 96.2 µM

CN(C)CCOc1ccc(-c2c(Oc3ccc(Cl)cc3)c(=O)oc3ccccc23)cc1
TGI [22]: > 35.7 µM | TGI [1]: 34.8 µM | TGI [23]: 35.7 µM | TGI [58]: > 28.3 µM | TGI [59]: 28.3 µM | TGI [60]: > 31.2 µM | TGI [24]: 4.55 µM | TGI [3]: 43.6 µM | TGI [4]: > 30.6 µM | TGI [5]: > 28.9 µM | TGI [6]: > 39.4 µM | TGI [7]: > 48.5 µM | TGI [8]: > 41.8 µM | TGI [28]: > 32.9 µM | TGI [29]: 48.1 µM | TGI [30]: > 53.9 µM | TGI [31]: 12.3 µM | TGI [32]: 34.3 µM | TGI [9]: 20.9 µM | TGI [33]: > 62 µM | TGI [34]: 22.8 µM | TGI [61]: 13.5 µM | TGI [62]: 24.8 µM | TGI [35]: 65.7 µM | TGI [63]: 30.1 µM | TGI [10]: 29.5 µM | TGI [11]: > 32.9 µM | TGI [37]: > 60 µM | TGI [38]: > 100 µM | TGI [12]: > 48.3 µM | TGI [13]: 37.6 µM | TGI [14]: > 42.8 µM | TGI [15]: 25.3 µM | TGI [40]: 28.1 µM | TGI [41]: 22.6 µM | TGI [42]: > 29 µM | TGI [64]: 22.4 µM | TGI [43]: > 25.7 µM | TGI [44]: 32.1 µM | TGI [16]: 87.8 µM | TGI [45]: > 32.5 µM | TGI [46]: > 27.9 µM | TGI [47]: 19.2 µM | TGI [48]: 43 µM | TGI [49]: 25.3 µM | TGI [50]: > 38.7 µM | TGI [65]: 45.5 µM | TGI [18]: > 62.5 µM | TGI [66]: > 100 µM | TGI [67]: > 52.1 µM | TGI [20]: > 46 µM | TGI [21]: > 43.6 µM | TGI [53]: > 39 µM | TGI [54]: 39.6 µM | TGI [55]: 29.9 µM | TGI [56]: 3.12 µM | TGI [57]: 27.4 µM

COC(=O)/C(=N/NC(C)(C)C)C(C(=O)C=C(C)C)C(=O)C(=O)Nc1ccc(Cl)cc1C (stereo not drawn)
TGI [1]: > 100 µM | TGI [23]: > 100 µM | TGI [24]: > 100 µM | TGI [3]: > 100 µM | TGI [4]: > 100 µM | TGI [27]: > 100 µM | TGI [5]: > 100 µM | TGI [7]: > 100 µM | TGI [8]: > 100 µM | TGI [28]: > 100 µM | TGI [29]: > 100 µM | TGI [30]: > 100 µM | TGI [31]: > 100 µM | TGI [32]: > 100 µM | TGI [9]: > 100 µM | TGI [33]: > 100 µM | TGI [34]: > 100 µM | TGI [35]: > 100 µM | TGI [10]: > 100 µM | TGI [11]: > 100 µM | TGI [37]: > 100 µM | TGI [38]: > 100 µM | TGI [39]: > 100 µM | TGI [13]: > 100 µM | TGI [68]: > 100 µM | TGI [14]: > 100 µM | TGI [40]: > 100 µM | TGI [41]: > 100 µM | TGI [42]: > 100 µM | TGI [43]: > 100 µM | TGI [44]: > 100 µM | TGI [16]: > 100 µM | TGI [45]: > 100 µM | TGI [46]: > 100 µM | TGI [47]: > 100 µM | TGI [48]: > 100 µM | TGI [49]: > 100 µM | TGI [17]: > 100 µM | TGI [50]: > 100 µM | TGI [18]: > 100 µM | TGI [51]: > 100 µM | TGI [19]: > 100 µM | TGI [20]: > 100 µM | TGI [21]: > 100 µM | TGI [52]: > 100 µM | TGI [53]: > 100 µM | TGI [54]: > 100 µM | TGI [55]: > 100 µM | TGI [56]: > 100 µM | TGI [57]: > 100 µM
